Patent publication US11076595B2, “1-(n,n-disubstituted carbamoyl) 4-(substituted sulfonyl)triazolin-5-one derivative, 4-(n,n-disubstituted carbamoyl) 1-(substituted sulfonyl)triazolin-5-one derivative, and herbicide containing said derivative as active ingredient” (HOKKO CHEMICAL INDUSTRY CO., LTD., priority 2017, dated 2021)

Experiments:
Assay type in all cases: in vivo
Monochoria vaginalis [1] = assay: Test Example 12: herbicidal effect test by treatment during growing period in paddy field; settings: 120 g/10a; treatment seven days after sowing in flooded paddy pot; assessed 14 days after treatment
In short: (§1)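 Puddled paddy soil in Wagner pots, 30 seeds per species sown 0-1 cm deep, flooded to about 3 cm in a greenhouse. Seven days after sowing, water-diluted emulsifiable concentrate was dripped in at 120 g active ingredient per 10 are. Suppression (%) from dry weight versus untreated at 14 days, two replicates.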

Scirpus juncoides [2] = assay: as above; settings: 120 g/10a; treatment seven days after sowing in flooded paddy pot; assessed 14 days after treatment
In short: as §1

Echinochloa crus-galli [3] = assay: as above; settings: 120 g/10a; treatment seven days after sowing in flooded paddy pot; assessed 14 days after treatment
In short: as §1

Lindernia pyxidaria [4] = assay: as above; settings: 120 g/10a; treatment seven days after sowing in flooded paddy pot; assessed 14 days after treatment
In short: as §1

Monochoria vaginalis [5] = assay: Test Example 11: herbicidal effect test by soil treatment in paddy field; settings: 120 g/10a active ingredient, 14 days after treatment
In short: (§2)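 Puddled paddy soil with N:P:K 17:17:17 fertilizer in Wagner pots; 30 seeds per species sown at 0–1 cm, flooded to about 3 cm, kept in a glass greenhouse. Water-diluted emulsifiable concentrate dripped in immediately after sowing at 120 g a.i. per 10 are. Suppression from dry weight versus untreated at 14 days.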

Scirpus juncoides [6] = assay: as above; settings: 120 g/10a active ingredient, 14 days after treatment
In short: as §2

Echinochloa crus-galli [7] = assay: as above; settings: 120 g/10a active ingredient, 14 days after treatment
In short: as §2

Lindernia pyxidaria [8] = assay: as above; settings: 120 g/10a active ingredient, 14 days after treatment
In short: as §2

Chenopodium album = assay: Test Example 14: herbicidal effect test by foliage treatment in upland field; settings: 7 days after sowing, 120 g/10a, 14 days after treatment
Procedure: (§3) A pot having a size of 36 cm^2 was filled with field soil (alluvial soil) and after uniformly mixing the soil of the surface layer of 1 cm with 20 grains of each weed seed of crabgrass, Echinochloa crus-galli, Chenopodium album and Amaranthus viridis, the surface layer was pressed lightly. Seven Days after the sowing, an emulsifiable concentrate prepared according to Formulation Example 15 by using the compound shown in Table 12 below was diluted with water, and the water-diluted formulation was sprayed on the soil surface at a ratio of 100 liter per 10 are. The application rate of the active ingredient, by conversion, corresponded to 120 g per 10 are. Fourteen Days after the formulation treatment, the herbicidal effect was evaluated by the same criteria as in Test Example 11.

crabgrass = assay: as above; settings: 7 days after sowing, 120 g/10a, 14 days after treatment
Procedure: as §3

Echinochloa crus-galli [9] = assay: as above; settings: 7 days after sowing, 120 g/10a, 14 days after treatment
Procedure: (§4) This test was performed with two replications per one formulation concentration plot, and 14 days after the formulation treatments, the weed suppression rate (%) was determined according to the following equation (Math. 2). Weed suppression rate (%)=(1−average dry weight (g) of plants in treated plots/average dry weight (g) of plants in untreated plots)×100 [Math. 2]
as §3

Amaranthus viridis = assay: as above; settings: 7 days after sowing, 120 g/10a, 14 days after treatment
Procedure: as §4, §3

Row | SMILES | Weed suppression rate (%) Monochoria vaginalis (Monochoria vaginalis [1]) | Weed suppression rate (%) Scirpus juncoides (Scirpus juncoides [2]) | Weed suppression rate (%) Echinochloa crus-galli (Echinochloa crus-galli [3]) | Weed suppression rate (%) Lindemia pyxidaria (Lindernia pyxidaria [4]) | Weed suppression rate (%) Monochoria vaginalis (Monochoria vaginalis [5]) | Weed suppression rate (%) Scirpus juncoides (Scirpus juncoides [6]) | Weed suppression rate (%) Echinochloa crus-galli (Echinochloa crus-galli [7]) | Weed suppression rate (%) Lindemia pyxidaria (Lindernia pyxidaria [8]) | herbicidal effect, Chenopodium album (Chenopodium album) | herbicidal effect, Crabgrass (crabgrass) | herbicidal effect, Echinochloa crus-galli (Echinochloa crus-galli [9]) | herbicidal effect, Amaranthus viridis (Amaranthus viridis)
1 | CC(C)N(C(=O)n1cnn(S(=O)(=O)C2CCCCC2)c1=O)c1cccc(F)c1 [Compound 11-285] | 80% | 90% | 90% | 80% | 80% | 90% | 90% | 80% | 80% | 90% | 80% | 90%
2 | Cc1cc(Cl)ccc1N(C(=O)n1cnn(S(=O)(=O)C2CC2)c1=O)C(C)C [Compound 11-213] | 80% | 90% | 90% | 80% | 60% | 90% | 100% | 90% | 80% | 90% | 80% | 90%
3 | Cc1ccc(S(=O)(=O)n2ncn(C(=O)N(c3ccc(Cl)cn3)C(C)C)c2=O)cc1 [Compound 11-661] | 100% | 90% | 100% | 100% | 80% | 90% | 100% | 100% | 0% | 70% | 90% | 0%
4 | CC(C)N(C(=O)n1cnn(S(=O)(=O)N(C)C)c1=O)c1ccc(Cl)cc1F [Compound 11-1072] | 60% | 90% | 100% | 90% | 80% | 90% | 90% | 80% | 80% | 90% | 80% | 90%
5 | CC(C)N(C(=O)n1cnn(S(=O)(=O)C2CC2)c1=O)c1ccc(Br)cc1Cl [Compound 11-209] | 90% | 100% | 100% | 80% | 90% | 100% | 100% | 100% | 60% | 90% | 90% | 30%
6 | CC(C)N(Cc1ccc(F)cc1F)C(=O)n1cnn(S(=O)(=O)c2cccs2)c1=O [Compound 11-1046] | 90% | 90% | 100% | 90% | 60% | 80% | 100% | 80% | 40% | 100% | 0% | 60%
7 | CC(C)N(C(=O)n1cnn(S(=O)(=O)c2cccs2)c1=O)c1ccc(Br)cc1Cl [Compound 11-1033] | 100% | 100% | 100% | 100% | 90% | 100% | 100% | 100% | 60% | 90% | 90% | 60%
8 | CC(C)N(C(=O)n1cnn(S(=O)(=O)C(C)C)c1=O)c1ccc(C(F)(F)F)cc1F [Compound 11-76] | 80% | 60% | 100% | 60% | 100% | 60% | 100% | 80% | 60% | 100% | 100% | 80%
9 | CN(C(=O)n1cnn(S(=O)(=O)C2CCCCC2)c1=O)c1ccc(F)cc1F [Compound 11-1129] | 80% | 100% | 100% | 70% | 100% | 100% | 100% | 100% | 60% | 90% | 70% | 70%
10 | CC(C)N(C(=O)n1cnn(S(=O)(=O)c2cccs2)c1=O)c1ccc(F)c(F)c1F [Compound 11-1025] | 100% | 100% | 100% | 80% | 100% | 100% | 100% | 100% | 60% | 100% | 100% | 60%
11 | CC(C)N(C(=O)n1cnn(S(=O)(=O)c2c(F)c(F)c(F)c(F)c2F)c1=O)c1c(F)cc(F)cc1F [Compound 11-815] | 70% | 70% | 100% | 80% | 80% | 100% | 100% | 100% | 80% | 100% | 70% | 70%
12 | CCS(=O)(=O)n1ncn(C(=O)N(c2ccc(F)c(F)c2F)C(C)C)c1=O [Compound 11-1152] | 100% | 100% | 100% | 100% | 100% | 100% | 100% | 100% | 80% | 100% | 100% | 90%
13 | CC(C)N(C(=O)n1cnn(S(=O)(=O)c2ccc(C(C)(C)C)cc2)c1=O)c1c(F)cc(F)cc1F [Compound 11-686] | 70% | 100% | 90% | 60% | 80% | 100% | 90% | 100% | 60% | 90% | 90% | 30%
